Article PMC10177510, “A Multicenter, Open-Label, Phase I/II Study of FN-1501 in Patients with Advanced Solid Tumors” (Cancers, 2023)
In brackets after ≈: the same amount, converted by molar mass.

Key:
[1] = Plasma pharmacokinetics of FN-1501 and metabolite M3 in patients (LC/MS-MS, noncompartmental); format: in vivo, human; conditions: for AUClast / AUC∞ / CL / Cmax / MRT∞ / Vss / Vz / t1/2 / tmax: mean; for Clearance: discussion; for Css,u: 260 mg
Experimental: For PK assessment, blood samples were collected pre-dose and 0.083, 0.25, 0.5, 1, 2, 4, 6, 8, 12, 24, and 48 h post-dose on Cycle 1, Day 1, and pre-dose on Cycle 2, Day 1. Plasma concentrations of FN-1501 and its metabolite M3 were analyzed at KCAS in Shawnee, KS, using a validated liquid chromatography/tandem mass spectrometry method. Primary pharmacokinetic (PK) endpoints were derived from FN-1501 and M3 concentration–time profiles and were analyzed using standard noncompartmental methods of analysis (Phoenix version 8).

MV-4-11 = conditions: ref data on file, Fosun Pharma; cited from earlier work
MV-4-11 xenograft = conditions: preclinical, no reference given; cited from earlier work

With `CN1CCN(Cc2ccc(NC(=O)c3[nH]ncc3Nc3ncnc4[nH]ccc34)cc2)CC1` [FN-1501] the AUClast ([1]; 2.5 mg IV) was 29.4 ± 11.9 ng·h/mL, the “AUC∞” value ([1]; 2.5 mg IV) was 32.4 ± 13.1 ng·h/mL and the CL ([1]; 2.5 mg IV) was 85.1 ± 26.8 L/h. For the same molecule, the Cmax ([1]; 2.5 mg IV) was 12.0 ± 1.42 ng/mL, the “MRT∞” value ([1]; 2.5 mg IV) was 11.7 ± 4.59 h and the Vss ([1]; 2.5 mg IV) was 913 ± 206 L. It also gave a Vz ([1]; 2.5 mg IV) of 1510 ± 421 L, a t1/2 ([1]; 2.5 mg IV) of 12.8 ± 3.5 h and a tmax ([1]; 2.5 mg IV) of 1.2 ± 0.10 h. For the same molecule, the AUClast ([1]; 5 mg IV) was 52.1 ± 18.2 ng·h/mL, the “AUC∞” value ([1]; 5 mg IV) was 56.5 ± 18.2 ng·h/mL and the CL ([1]; 5 mg IV) was 93.9 ± 25.2 L/h. The Cmax ([1]; 5 mg IV) was 25.5 ± 17.3 ng/mL, the “MRT∞” value ([1]; 5 mg IV) was 13.7 ± 3.74 h and the Vss ([1]; 5 mg IV) was 1320 ± 619 L. The Vz ([1]; 5 mg IV) was 2570 ± 932 L, the t1/2 ([1]; 5 mg IV) was 18.6 ± 2.34 h and the tmax ([1]; 5 mg IV) was 1.1 ± 0.02 h. For the same molecule, the AUClast ([1]; 10 mg IV) was 119 ± 32.6 ng·h/mL, the “AUC∞” value ([1]; 10 mg IV) was 129 ± 41.3 ng·h/mL and the CL ([1]; 10 mg IV) was 84.7 ± 32.4 L/h. The Cmax ([1]; 10 mg IV) was 36.9 ± 17.5 ng/mL, the “MRT∞” value ([1]; 10 mg IV) was 12.5 ± 2.84 h and the Vss ([1]; 10 mg IV) was 1110 ± 664 L. The Vz ([1]; 10 mg IV) was 1720 ± 925 L, the t1/2 ([1]; 10 mg IV) was 13.7 ± 2.68 h and the tmax ([1]; 10 mg IV) was 1.2 ± 0.15 h. For the same molecule, the AUClast ([1]; 15 mg IV) was 138 ± 10.8 ng·h/mL, the “AUC∞” value ([1]; 15 mg IV) was 153 ± 8.45 ng·h/mL and the CL ([1]; 15 mg IV) was 98.5 ± 5.29 L/h. The Cmax ([1]; 15 mg IV) was 35.6 ± 2.15 ng/mL, the “MRT∞” value ([1]; 15 mg IV) was 16.1 ± 2.64 h and the Vss ([1]; 15 mg IV) was 1600 ± 331 L. For the same molecule, the Vz ([1]; 15 mg IV) was 2370 ± 536 L, the t1/2 ([1]; 15 mg IV) was 16.6 ± 3 h and the tmax ([1]; 15 mg IV) was 1.2 ± 0.14 h. For the same molecule, the AUClast ([1]; 22.5 mg IV) was 251 ± 87.8 ng·h/mL, the “AUC∞” value ([1]; 22.5 mg IV) was 239 ± 55.4 ng·h/mL and the CL ([1]; 22.5 mg IV) was 96.9 ± 22.5 L/h. For the same molecule, the Cmax ([1]; 22.5 mg IV) was 65.8 ± 24.5 ng/mL, the “MRT∞” value ([1]; 22.5 mg IV) was 16.4 ± 1.01 h and the Vss ([1]; 22.5 mg IV) was 1600 ± 466 L. For the same molecule, the Vz ([1]; 22.5 mg IV) was 2570 ± 663 L, the t1/2 ([1]; 22.5 mg IV) was 18.3 ± 0.49 h and the tmax ([1]; 22.5 mg IV) was 1.2 ± 0.19 h. For the same molecule, the AUClast ([1]; 30 mg IV) was 297 ± 55.8 ng·h/mL, the “AUC∞” value ([1]; 30 mg IV) was 341 ± 47.1 ng·h/mL and the CL ([1]; 30 mg IV) was 89.1 ± 13.3 L/h. For the same molecule, the Cmax ([1]; 30 mg IV) was 87.8 ± 37.5 ng/mL, the “MRT∞” value ([1]; 30 mg IV) was 13.4 ± 8.49 h and the Vss ([1]; 30 mg IV) was 1130 ± 619 L. For the same molecule, the Vz ([1]; 30 mg IV) was 1500 ± 786 L, the t1/2 ([1]; 30 mg IV) was 12.4 ± 7.43 h and the tmax ([1]; 30 mg IV) was 1.1 ± 0.11 h. For the same molecule, the AUClast ([1]; 40 mg IV) was 437 ± 77.2 ng·h/mL, the “AUC∞” value ([1]; 40 mg IV) was 499 ± 122 ng·h/mL and the CL ([1]; 40 mg IV) was 83.6 ± 18.6 L/h. For the same molecule, the Cmax ([1]; 40 mg IV) was 128 ± 41.9 ng/mL, the “MRT∞” value ([1]; 40 mg IV) was 18.3 ± 6.19 h and the Vss ([1]; 40 mg IV) was 1450 ± 185 L. The Vz ([1]; 40 mg IV) was 2160 ± 195 L, the t1/2 ([1]; 40 mg IV) was 18.7 ± 5.68 h and the tmax ([1]; 40 mg IV) was 1.1 ± 0.044 h. The AUClast ([1]; 54 mg IV) was 773 ± 180 ng·h/mL, the “AUC∞” value ([1]; 54 mg IV) was 868 ± 181 ng·h/mL and the CL ([1]; 54 mg IV) was 63.9 ± 12.4 L/h. For the same molecule, the Cmax ([1]; 54 mg IV) was 323 ± 55.6 ng/mL, the “MRT∞” value ([1]; 54 mg IV) was 16.9 ± 7.34 h and the Vss ([1]; 54 mg IV) was 1080 ± 516 L. The Vz ([1]; 54 mg IV) was 1820 ± 740 L, the t1/2 ([1]; 54 mg IV) was 19.6 ± 6.44 h and the tmax ([1]; 54 mg IV) was 1.1 ± 0.05 h. The AUClast ([1]; 72 mg IV) was 742 ± 275 ng·h/mL, the “AUC∞” value ([1]; 72 mg IV) was 823 ± 292 ng·h/mL and the CL ([1]; 72 mg IV) was 94.2 ± 28.8 L/h. For the same molecule, the Cmax ([1]; 72 mg IV) was 161 ± 67.7 ng/mL, the “MRT∞” value ([1]; 72 mg IV) was 16.8 ± 1.12 h and the Vss ([1]; 72 mg IV) was 1580 ± 489 L. For the same molecule, the Vz ([1]; 72 mg IV) was 2370 ± 833 L, the t1/2 ([1]; 72 mg IV) was 17.2 ± 1.58 h and the tmax ([1]; 72 mg IV) was 1.3 ± 0.24 h. The AUClast ([1]; 96 mg IV) was 1420 ± 236 ng·h/mL, the “AUC∞” value ([1]; 96 mg IV) was 1650 ± 229 ng·h/mL and the CL ([1]; 96 mg IV) was 59.1 ± 8.20 L/h. For the same molecule, the Cmax ([1]; 96 mg IV) was 494 ± 289 ng/mL, the “MRT∞” value ([1]; 96 mg IV) was 15.4 ± 6.58 h and the Vss ([1]; 96 mg IV) was 921 ± 425 L. The Vz ([1]; 96 mg IV) was 1410 ± 682 L, the t1/2 ([1]; 96 mg IV) was 16.1 ± 6.28 h and the tmax ([1]; 96 mg IV) was 1.1 ± 0.13 h. For the same molecule, the AUClast ([1]; 128 mg IV) was 1730 ± 850 ng·h/mL, the “AUC∞” value ([1]; 128 mg IV) was 1980 ± 1120 ng·h/mL and the CL ([1]; 128 mg IV) was 79.9 ± 4.21 L/h. The Cmax ([1]; 128 mg IV) was 533 ± 344 ng/mL, the “MRT∞” value ([1]; 128 mg IV) was 18.1 ± 5.53 h and the Vss ([1]; 128 mg IV) was 1320 ± 473 L. The Vz ([1]; 128 mg IV) was 1790 ± 366 L, the t1/2 ([1]; 128 mg IV) was 17.8 ± 7.00 h and the tmax ([1]; 128 mg IV) was 1.1 ± 0.11 h. The AUClast ([1]; 170 mg IV) was 3340 ± 1500 ng·h/mL, the “AUC∞” value ([1]; 170 mg IV) was 3760 ± 1980 ng·h/mL and the CL ([1]; 170 mg IV) was 56.5 ± 31.5 L/h. The Cmax ([1]; 170 mg IV) was 955 ± 330 ng/mL, the “MRT∞” value ([1]; 170 mg IV) was 15.8 ± 7.89 h and the Vss ([1]; 170 mg IV) was 757 ± 218 L. It also gave a Vz ([1]; 170 mg IV) of 1120 ± 419 L, a t1/2 ([1]; 170 mg IV) of 15.0 ± 3.64 h and a tmax ([1]; 170 mg IV) of 1.3 ± 0.26 h. The Clearance ([1]; 170 mg) was 50 L/h, the AUClast ([1]; 226 mg IV) was 5620 ± 1390 ng·h/mL and the “AUC∞” value ([1]; 226 mg IV) was 6070 ± 1670 ng·h/mL. For the same molecule, the CL ([1]; 226 mg IV) was 39.4 ± 0.17 L/h, the Cmax ([1]; 226 mg IV) was 1180 ± 232 ng/mL and the “MRT∞” value ([1]; 226 mg IV) was 15.2 ± 3.92 h. The Vss ([1]; 226 mg IV) was 569 ± 30.8 L, the Vz ([1]; 226 mg IV) was 787 ± 139 L and the t1/2 ([1]; 226 mg IV) was 14.2 ± 2.2 h. The tmax ([1]; 226 mg IV) was 1.2 ± 0.02 h, the Clearance ([1]; 226 mg) was 38 L/h and the “Css,u” value ([1]; 48 h dosing interval) was 37 ng/mL. For the same molecule, the “Css,u” value ([1]; 72 h dosing interval) was 25 ng/mL, the “AUC increase with dose” value ([1]; 2.5 to 226 mg) was “greater than dose-proportional” and the “Cmax increase with dose” value ([1]; 2.5 to 226 mg) was “roughly dose-proportional”. The “Drug concentration at end of dosing interval” value ([1]; 48 h post-dose) was “approximately 20 ng/mL”, the IC50 (MV-4-11) was 2.6 ng/mL (≈ 6.03 nM) and the “Dose at which tumor growth reached stasis” value (MV-4-11 xenograft) was 5 mg/kg.
